# From patent US10113147B2, “Method for producing megakaryocytes, platelets and/or thrombopoietin using mesenchymal cells” (AdipoSeeds, Inc., priority 2013, dated 2018)
# Structures can show the parent of a compound that is named as a salt.
# Key:
# Format in all cases: cell-based
# mouse preadipocytes [1] = assay: Identification of megakaryocyte/platelet production inducing substance (CD41 flow cytometry); settings: reagent added alone to basic medium, Day 7
# Experimental: In order to identify an important factor(s) for inducing production of megakaryocytes/platelets from preadipocytes, mediums were prepared by separately adding individual reagents contained in a differentiation-inducing medium (MKLI medium) for megakaryocytes/platelets, to a basic medium (IMDM medium containing 2 mM L-glutamine, a 100 U/mL penicillin-streptomycin solution, and nucleotides (ATP, UTP, GTP, and CTP, 20 μM for each)). More specifically, five types of mediums were prepared by adding 0.5% bovine serum albumin, 10 μg/mL insulin, 4 μg/mL LDL cholesterol, 200 μg/mL iron-saturated transferrin (iron-bound transferrin) and 50 μM 2-β-mercaptoethanol, respectively, to the basic mediums (FIG. 5). Mouse preadipocytes maintenance-cultured in accordance with the method of Example 1 were cultured in the above five types of mediums and in the basic medium, i.e., in total 6 types of medium (FIG. 5) for 7 days.
# The mouse preadipocytes on Day 7 after culture in each of the mediums were directly labeled with a FITC-labeled anti-CD41 antibody and analyzed by flow cytometry.
# preadipocytes [2] = assay: CD71 knock-down by siRNA: TPO in culture supernatant by ELISA
# Experimental: A medium was prepared by removing bovine serum albumin, insulin, LDL cholesterol and 2-β-mercaptoethanol from MKLI medium. The medium is the same as a medium (“basic medium+transferrin”), which is prepared by adding 200 μg/mL iron-bound transferrin to a medium (of MKLI medium) corresponding to a basic medium (a medium prepared by adding, to Iscove's Modified Dulbecco's Medium, IMDM), 2 mM L-glutamine, a 100 U/mL penicillin-streptomycin solution, and nucleotides (ATP, UTP, GTP, and CTP, 20 μM for each) and corresponding to a medium prepared by adding 200 μg/mL iron-bound transferrin to “the particularly preferable basic medium in the present invention” described in the detailed description of the present application. To preadipocytes, a gene of siRNA of transferrin receptor CD71 (siRNA-CD71) (the sequence of a sense strand is represented by SEQ. ID No. 1, whereas the sequence of the antisense strand is represented by SEQ. ID No. 2) or a scrambled oligo (negative control) (the sequence of a sense strand is represented by SEQ. ID No. 3, whereas the sequence of the antisense strand is represented by SEQ. ID No. 4) was introduced. The resultant preadipocytes were cultured in the aforementioned “basic medium+transferrin”. TPO in each of the culture supernatants was measured by ELISA quantitation using the TPO Quantikine ELISA kit (manufactured by R&D Systems). In Table 6, “unmeasurable” means that measurement values are equivalent to the value of the background. As is apparent from Table 6, TPO was secreted from preadipocytes using the scrambled oligo, whereas TPO was not secreted from preadipocytes in which transferrin receptor CD71 was knocked down by siRNA.
# [3] = system: transferrin receptor CD71; assay: CD71 knock-down by siRNA: CD71 % in human preadipocytes
# From the text: (§1) In consideration of the results, whether a transferrin receptor CD71 knock-down preadipocytes have differentiation potency to megakaryocytes and platelets or not was checked. To human preadipocytes, a gene of siRNA of CD71 (siRNA-CD71) (the sequence of a sense strand is represented by SEQ. ID No. 1, whereas the sequence of the antisense strand is represented by SEQ. ID No. 2) or a scrambled oligo (negative control) (the sequence of a sense strand is represented by SEQ. ID No. 3, whereas the sequence of the antisense strand is represented by SEQ. ID No. 4) was introduced. Forty eight hours later, the human preadipocytes were cultured in a medium prepared by adding transferrin alone to the basic medium, for four days.
# (§2) Human preadipocytes on Day 4 after culture were directly labeled with a FITC-labeled anti-CD41 antibody and analyzed by flow cytometry. As a result, production of megakaryocytes and platelets was not observed in CD71 knock-down human preadipocytes (Table 1).
# human preadipocytes [4] = assay: CD71 knock-down by siRNA: CD41-positive cells by flow cytometry
# From the text: as §1, §2
# [5] = system: transferrin receptor CD71; assay: CD71 knock-down by siRNA: CD71 % (Example 11)
# [6] = system: mouse hematopoietic stem cells; assay: Differentiation of hematopoietic stem cells into megakaryocytes/platelets
# From the text: Activity of TPO secreted during the process of producing megakaryocytes/platelets from preadipocytes was investigated based on the presence or absence of differentiation-inducing property of mouse hematopoietic stem cells into megakaryocytes/platelets when TPO was used. Whether platelets are produced or not was checked based on the shape analyzed by an optical microscope and flow-cytometric expression analysis of platelet specific marker CD41.
# preadipocytes [7] = assay: Effect of iron chelator and apo-transferrin on ratio of CD41-positive cells; settings: Day 4
# Experimental: To investigate effect of an iron ion on induction of preadipocytes into megakaryocytes/platelets, analysis using the preadipocytes was made. Specifically, a medium (basic medium+iron-bound transferrin+Desferal (deferoxamine mesylate)) was prepared by adding an iron chelator, Desferal (deferoxamine mesylate, manufactured by Novartis Pharma K. K.) to a basic medium containing 200 μg/mL iron-bound transferrin, or a medium (basic medium+apo-transferrin) was prepared by adding a non-iron-bound transferrin, apo-transferrin (manufactured by Athens Research and Technology) to a basic medium alone. Cells were cultured in these mediums and the ratio (%) of CD41 (specific marker of megakaryocytes and platelets)—positive cells in the cells on Day 4 after the culture was determined. The results of Desferal (deferoxamine mesylate) addition are shown in Table 3; whereas the results of apo-transferrin addition are shown in Table 4.
# mouse preadipocytes [8] = assay: CD41-positive ratio of sorted adipose tissue-derived cell fractions cultured with iron-bound transferrin; settings: CD31 negative, 200 μg/mL, Day 5
# Experimental: A subcutaneous adipose tissue was isolated from a mouse. To this, collagenase was added. The mixture was incubated at 37° C. for one hour and centrifuged to obtain a cell layer as a lower layer. Thereafter, these cells were labeled with a fluorescence-labeled anti-CD45 antibody (manufactured by BD Bioscience), a fluorescence-labeled anti-Ter119 antibody (manufactured by BD Bioscience) and 7AAD (manufactured by BD Bioscience), and fluorescence was measured by flow cytometry. Of the cells shown in FIG. 7, upper right panel, cells of CD45 negative, Ter119 negative and 7-AAD negative (cells under the line at the center of the upper right panel of FIG. 7) were separately taken. CD45 is known as a marker of hematopoietic cells (leucocytes, lymphocytes, eosinophils, monocytes, basophils, and neutrophils) excluding erythrocytes and platelets. Ter119 is known as a marker of mature erythrocytes and erythroid progenitor cells. 7-AAD (7-amino-actinomycin D) is known as a marker of dead cells.
# Subsequently, CD45 negative, Ter119 negative and 7-AAD negative cells separately taken were labeled with a fluorescence-labeled anti-CD31 antibody (manufactured by BD Bioscience) and fluorescent was measured by flow cytometry. Of the cells shown in the lower left panel of FIG. 7, CD31 negative cells (cells under the line of the center of the lower left panel of FIG. 7) were separately taken. […]
# Subsequently, the cells (CD45 negative, Ter119 negative, 7-AAD negative and CD31 negative) previously separately taken were labeled with a fluorescence-labeled anti-c-MPL antibody (manufactured by BD Bioscience) and a fluorescence-labeled anti-CD71 antibody (manufactured by BD Bioscience), and fluorescence was measured by flow cytometry. […]
# The cells shown in individual portions of the left panel of FIG. 8 were separately cultured in a medium prepared by adding 200 μg/mL iron-bound transferrin to the basic medium described in Example 3. The ratio (%) of CD41 (specific marker of megakaryocytes/platelets)-positive cells in the cells on Day 5 after initiation of culture was determined. […]
# human preadipocytes [9] = assay: Ratio of CD41-positive cells at different iron-bound transferrin concentrations; settings: Day 4
# Experimental: Human preadipocytes maintenance-cultured in accordance with the method of Example 1 were prepared and cultured in mediums prepared by adding iron-bound transferrin samples different in concentration to the basic medium described in Example 3. The ratio (%) of CD41 (specific marker of megakaryocytes and platelets)-positive cells in the cells on Day 4 after initiation of the culture was determined.
# human preadipocytes [10] = assay: TPO production at different iron-bound transferrin concentrations; settings: for TPO: Day 4
# [11] = Day 0 (48 hours after siRNA introduction)
# [12] = Day 2, basic medium+transferrin
# [13] = Day 4, basic medium+transferrin
# [14] = Day 4 of culture in basic medium + transferrin
# [15] = iron-bound transferrin 25 μg/mL in basic medium
# [16] = iron-bound transferrin 50 μg/mL in basic medium
# [17] = iron-bound transferrin 100 μg/mL in basic medium
# [18] = iron-bound transferrin 200 μg/mL in basic medium
# [19] = iron-bound transferrin 400 μg/mL in basic medium
compound,measurement,setting,value
OCCS [2-β-mercaptoethanol],cells expressing CD41,mouse preadipocytes [1],not observed
"siRNA-CD71: siRNA of transferrin receptor CD71; sense strand SEQ. ID No. 1, antisense strand SEQ. ID No. 2 (sense GAACUUGAAACUGCGUAAATT; antisense UUUACGCAGUUUCAAGUUCTT; chemistry not given here) [siRNA of transferrin receptor CD71; ID No. 2]",TPO,preadipocytes [2]; [11],Unmeasurable
same,TPO,preadipocytes [2]; [12],Unmeasurable
same,TPO,preadipocytes [2]; [13],Unmeasurable
same,CD71 %,[3]; [11],5.7 ± 0.2%
same,CD71 %,[3]; [14],7.5 ± 0.7%
same,CD41 (%),human preadipocytes [4]; [11],0.1> %
same,CD41 (%),human preadipocytes [4]; [14],0.1> %
same,CD71 %,[5]; [11],5.7 ± 0.2%
same,CD71 %,[5]; [12],13.7 ± 0.6%
same,CD71 %,[5]; [13],7.5 ± 0.7%
"TPO: thrombopoietin purchased from Stem Cell Technologies, 50 ng/mL in MKLI medium",platelet production,[6]; Day 2 and Day 8 after initiation of culture,slightly produced
same,ratio of CD41 positive cells,"[6]; Day 8, 1.26% before culture, supernatant TPO 43.1±4.9 pg/mL, purchased TPO 50 ng/mL in MKLI medium",5.56%
"CC(=O)N(O)CCCCCNC(=O)CCC(=O)N(O)CCCCCNC(=O)CCC(=O)N(O)CCCCCN [Desferal, deferoxamine mesylate]",CD41 (%),preadipocytes [7]; Desferal 0.005 mg/mL in basic medium + 200 μg/mL iron-bound transferrin,36 ± 11.3%
same,CD41 (%),preadipocytes [7]; Desferal 0.05 mg/mL in basic medium + 200 μg/mL iron-bound transferrin,35.5 ± 10.6%
same,CD41 (%),preadipocytes [7]; Desferal 0.5 mg/mL in basic medium + 200 μg/mL iron-bound transferrin,14 ± 5.7%
same,CD41 (%),preadipocytes [7]; Desferal 5 mg/mL in basic medium + 200 μg/mL iron-bound transferrin,10.5 ± 6.4%
same,CD41 (%),preadipocytes [7]; Desferal 50 mg/mL in basic medium + 200 μg/mL iron-bound transferrin,5 ± 2.8%
"insulin: insulin, 10 μg/mL added to basic medium",cells expressing CD41,mouse preadipocytes [1],not observed
"Apo-transferrin: non-iron-bound transferrin, manufactured by Athens Research and Technology",CD41 (%),preadipocytes [7]; apo-transferrin 200 μg/mL added to basic medium alone,16.5 ± 4.95%
same,CD41 (%),preadipocytes [7]; apo-transferrin 400 μg/mL added to basic medium alone,14.5 ± 3.54%
Iron-bound transferrin: holo-transferrin formed by binding an apo-transferrin to an iron ion; manufactured by Sigma,ratio (%) of CD41-positive cells,"mouse preadipocytes [8]; c-MPL negative, CD71 negative preadipocytes",10.8%
same,ratio (%) of CD41-positive cells,"mouse preadipocytes [8]; c-MPL negative, CD71 positive preadipocytes",26.9%
same,ratio (%) of CD41-positive cells,"mouse preadipocytes [8]; c-MPL positive, CD71 positive preadipocytes",62.3%
same,cells expressing CD41,mouse preadipocytes [1],observed
same,CD41 (%),human preadipocytes [9]; [15],15.5 ± 9.2%
same,CD41 (%),human preadipocytes [9]; [16],18 ± 9.9%
same,CD41 (%),human preadipocytes [9]; [17],17.5 ± 9.2%
same,CD41 (%),human preadipocytes [9]; [18],19 ± 8.5%
same,CD41 (%),human preadipocytes [9]; [19],11 ± 7.1%
same,TPO,human preadipocytes [10]; [15],Below
same,decrease of concentration of TPO produced compared to the case of 200 μg/mL,human preadipocytes [10]; iron-bound transferrin 50 μg/mL,about 25%
same,TPO,human preadipocytes [10]; [16],7.5 ± 1.1 pg/mL
same,TPO,human preadipocytes [10]; [17],10.8 ± 3.5 pg/mL
same,TPO,human preadipocytes [10]; [18],10 ± 2.4 pg/mL
same,TPO,human preadipocytes [10]; [19],Below
